Measured values reported in ChEMBL document CHEMBL3046373, “Optimised expression and spectral analysis of the target enzyme CYP51 from Penicillium digitatum with possible new DMI fungicides” (Pest Manag Sci, 2010).
Converted amounts (≈) assume the structure as drawn.

Assays:
Penicillium digitatum = experiment: Antifungal activity against Penicillium digitatum after 48 hr; assay type: functional, organism-based
[1] = molecular target: T1, Cytochrome P450 14alpha-demethylase (Penicillium digitatum, UniProt A1XG20); experiment: Binding affinity to Penicillium digitatum recombinant N-terminal-His6 tagged CYP51 expressed in Escherichia coli BL21(DE3) by spectrophotometric analysis
T1 sequence (A1XG20 whole entry): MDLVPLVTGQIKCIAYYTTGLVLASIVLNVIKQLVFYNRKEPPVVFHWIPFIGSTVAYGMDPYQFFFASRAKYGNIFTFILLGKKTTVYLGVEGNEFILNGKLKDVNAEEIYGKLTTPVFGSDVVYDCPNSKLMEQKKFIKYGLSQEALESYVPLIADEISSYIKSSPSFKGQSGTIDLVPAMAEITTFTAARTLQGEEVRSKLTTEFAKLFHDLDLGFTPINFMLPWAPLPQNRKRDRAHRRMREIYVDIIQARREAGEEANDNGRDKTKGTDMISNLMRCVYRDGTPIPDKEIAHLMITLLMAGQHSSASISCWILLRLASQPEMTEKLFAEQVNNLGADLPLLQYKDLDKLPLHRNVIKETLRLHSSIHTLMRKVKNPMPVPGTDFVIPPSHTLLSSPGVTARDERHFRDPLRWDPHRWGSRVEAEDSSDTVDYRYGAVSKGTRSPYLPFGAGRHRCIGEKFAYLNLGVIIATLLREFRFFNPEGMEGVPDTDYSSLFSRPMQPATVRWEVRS

SMILES | EC50 (Penicillium digitatum) | Kd [1]
Nc1nnc(CSCc2ccc(Cl)cc2)s1 | 7.88 µg/mL (≈ 29 µM) | 0.642 µM
c1cc2c3c(cccc3c1)NC(c1cnc[nH]1)N2 | 38.6 µg/mL (≈ 163 µM) | 0.99 µM
NNc1ncncc1-c1ccccc1 [5-PHENYLPYRIMIDIN-4-YLHYDRAZINE] | 10.1 µg/mL (≈ 54.2 µM) | 0.658 µM
COc1ccc2c(c1)SCC(N)=N2 [7-METHOXY-2H-BENZO[B][1,4]THIAZINE-3-AMINE] | 1.18 µg/mL (≈ 6.07 µM) | 0.268 µM
CC(C)(C)C(O)/C(=C\c1ccc(Cl)cc1Cl)n1cncn1 (stereo not given) [DINICONAZOLE] |  | 0.12 µM
CC(C)(C)C(=O)C(Oc1ccc(Cl)cc1)n1cncn1 (stereo not given) [TRIADIMEFON] |  | 0.42 µM
